Molecular target: HCoV-229E 3CL protease (Human coronavirus 229E, UniProt P0C6U2)
Assay: FRET based protease assay, HCoV-229E 3CL
Assay type: biochemical
Conditions: 229E IC50, 6 nM H229E-CoV Chis-3CLpro, 6 μM peptide 1 substrate, 25° C., 1.5 hrs, pH 7.5

Chain of HCoV-229E 3CL protease (P0C6U2 2966-3267): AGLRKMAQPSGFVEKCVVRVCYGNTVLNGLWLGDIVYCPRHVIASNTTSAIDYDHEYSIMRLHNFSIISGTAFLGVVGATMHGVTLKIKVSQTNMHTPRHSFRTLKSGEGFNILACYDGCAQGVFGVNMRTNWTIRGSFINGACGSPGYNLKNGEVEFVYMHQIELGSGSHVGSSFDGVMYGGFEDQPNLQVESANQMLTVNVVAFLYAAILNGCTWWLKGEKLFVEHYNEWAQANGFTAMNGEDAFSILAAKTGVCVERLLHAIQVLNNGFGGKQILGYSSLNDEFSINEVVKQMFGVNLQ

Structure (SMILES) | IC50 [µM]
CCC(C)(C)[C@@H]1NC(=O)[C@@H](NC(=O)OC(C)(C)C)CCCC[C@H]2CNC(=O)[C@H]2C[C@@H](C#N)NC1=O [Example 145] | 1 to 20
CC1(C)[C@@H]2[C@H]3C(=O)N[C@H](C#N)C[C@@H]4C(=O)NC[C@@H]4CCCC[C@H](NC(=O)C4(C(F)(F)F)CC4)C(=O)N3C[C@@H]21 [Example 117] | < 0.1
CC1(C(=O)N[C@H]2CCCC[C@H]3CNC(=O)[C@H]3C[C@@H](C#N)NC(=O)[C@@H]3[C@@H]4[C@H](CN3C2=O)C4(C)C)CCC1 [Example 118] | < 0.1
CC(C)(C)OC(=O)N[C@H]1CCCC[C@H]2CNC(=O)[C@H]2C[C@@H](C#N)NC(=O)[C@@H]2CCCCCN2C1=O [Example 143] | 0.1 to 1
CC(C)(C)C[C@@H]1NC(=O)[C@@H](NC(=O)OC(C)(C)C)CCCC[C@H]2CNC(=O)[C@H]2C[C@@H](C#N)NC1=O [Example 60] | < 0.1
CC(C)(C)OC(=O)N[C@H]1CCC[C@H]2CCNC(=O)[C@H]2C[C@@H](C#N)NC(=O)[C@@H]2[C@H]3CCC[C@H]3CN2C1=O [Example 100] | 0.1 to 1
CC(C)C[C@@H]1NC(=O)CCCCCC[C@@H]2CNCC(=O)[C@H]2C[C@@H](C=O)NC1=O [Example 51] | 1 to 20
CC(C)C[C@H]1C(=O)N[C@H](C#N)C[C@@H]2C(=O)NC[C@@H]2CCCC[C@H](NC(=O)C(C)(C)C)C(=O)N1C [Example 57] | 0.1 to 1
N#C[C@@H]1C[C@H]2C(=O)NC[C@@H]2CCCCC(=O)N2C[C@@H]3CCC[C@@H]3[C@H]2C(=O)N1 [Example 26] | 1 to 20
CC(C)(C)C[C@@H]1NC(=O)[C@@H](NC(=O)C(C)(C)C)CCCC[C@H]2CNC(=O)[C@H]2C[C@@H](C#N)NC1=O [Example 53] | < 0.1
CC(C)C[C@@H]1NC(=O)CCCCCC[C@@H]2CNC(=O)[C@@H]2C[C@@H](C=O)NC1=O [Example 46] | 0.1 to 1
CC(C)C[C@@H]1NC(=O)[C@@H](CC2CCCC2)CCC[C@H]2CNC(=O)[C@@H]2C[C@@H](C=O)NC1=O [Example 18] | 0.1 to 1
CC(C)(C)C(=O)N[C@H]1C/C=C\[C@H]2CNC(=O)[C@H]2C[C@@H](C#N)NC(=O)[C@@H]2[C@@H]3[C@H](CN2C1=O)C3(C)C [Example 64] | 1 to 20
CC(C)(C)OC(=O)N[C@H]1CC/C=C/[C@H]2CNC(=O)[C@H]2C[C@@H](C#N)NC(=O)[C@@H]2[C@H]3CCC[C@H]3CN2C1=O [Example 112] | < 0.1
CC(C)(C)C(=O)N[C@H]1CCCC[C@H]2CNC(=O)[C@H]2C[C@@H](C#N)NC(=O)[C@@H]2[C@H]3CCC[C@H]3CN2C1=O [Example 70] | < 0.1
CC1(C)[C@@H]2[C@H]3C(=O)N[C@H](C#N)C[C@@H]4C(=O)NC[C@@H]4CCCC[C@H](NS(=O)(=O)C(F)(F)F)C(=O)N3C[C@@H]21 [Example 158] | < 0.1
CC(C)(C)OC(=O)N[C@H]1CC/C=C\[C@H]2CCNC(=O)[C@H]2CC(C#N)NC(=O)[C@@H]2[C@H]3CCC[C@H]3CN2C1=O (stereo partly drawn) [Example 97] | < 0.1
CC(C)(C)OC(=O)N[C@H]1CCCC[C@H]2CNC(=O)[C@H]2C[C@@H](C#N)NC(=O)[C@@H]2[C@H]3CC[C@H](CC3)N2C1=O [Example 111] | 0.1 to 1
CC(C)C[C@@H]1NC(=O)CCCCC[C@@H]2CNC(=O)[C@H]2C[C@@H](C=O)NC1=O [Example 31] | 1 to 20
CC(C)(C)CC(=O)N[C@H]1CCCC[C@H]2CNC(=O)[C@H]2C[C@@H](C#N)NC(=O)[C@@H]2[C@@H]3[C@H](CN2C1=O)C3(C)C [Example 73] | < 0.1
CC(C)C[C@@H]1NC(=O)[C@@H](NC(=O)C(C)(C)C)CC/C=C\[C@H]2CNC(=O)[C@H]2C[C@@H](C#N)NC1=O [Example 59] | 0.1 to 1

Structure (SMILES) | IC50 [µM]
CC(C)(C)OC(=O)N[C@H]1CCCC[C@H]2CNC(=O)[C@H]2C[C@@H](C#N)NC(=O)[C@H](CC2CCCC2)NC1=O [Example 137] | < 0.1
CC(C)(C)OC(=O)N[C@H]1CC/C=C/[C@H]2CCNC(=O)[C@H]2C[C@@H](C#N)NC(=O)[C@@H]2[C@H]3CCC[C@H]3CN2C1=O [Example 99] | 1 to 20
CC1(C)[C@@H]2[C@H]3C(=O)N[C@H](C#N)C[C@@H]4C(=O)NC[C@@H]4CCCC[C@H](NC(=O)C45CCC(C4)C5)C(=O)N3C[C@@H]21 [Example 148] | < 0.1
CC(C)C[C@@H]1NC(=O)[C@@H](C2CCCC2)CCCC[C@H]2CNC(=O)[C@H]2C[C@@H](C#N)NC1=O [Example 41] | > 20
CC(C)(C)OC(=O)N[C@H]1CCCC[C@H]2CNC(=O)[C@H]2C[C@@H](C#N)NC(=O)[C@@H]2CC3(CCN2C1=O)CC3 [Example 132] | < 0.1
CC(C)(C(=O)N[C@H]1CCCC[C@H]2CNC(=O)[C@H]2C[C@@H](C#N)NC(=O)[C@@H]2[C@@H]3[C@H](CN2C1=O)C3(C)C)c1ccc(Cl)cc1 [Example 121] | < 0.1
CC(C)(C)OC(=O)N[C@H]1COCCC[C@H]2CNC(=O)[C@H]2C[C@@H](C#N)NC(=O)[C@@H]2[C@@H]3[C@H](CN2C1=O)C3(C)C [Example 102] | < 0.1
CC(C)C[C@@H]1NC(=O)[C@@H](C2CCCC2)CCC[C@H]2CNC(=O)[C@@H]2C[C@@H](C#N)NC1=O [Example 28] | 1 to 20
CC(C)C[C@@H]1NC(=O)CCCC[C@H]2CNC(=O)[C@@H]2C[C@@H](C=O)NC1=O [Example 4] | < 0.1
CC(C)C[C@@H]1NC(=O)[C@@H](Cc2ccccc2)CCC[C@@H]2CNC(=O)[C@@H]2C[C@@H](C=O)NC1=O [Example 9] | 0.1 to 1
N#C[C@@H]1C[C@@H]2C(=O)NCC[C@@H]2CCCC[C@H](NC(=O)OC2CCCC2)C(=O)N2C[C@@H]3CCC[C@@H]3[C@H]2C(=O)N1 [Example 93] | < 0.1
CC(C)C[C@@H]1NC(=O)[C@@H](Cc2ccccc2)CCCCC[C@@H]2CNC(=O)[C@@H]2C[C@@H](C#N)NC1=O [Example 49] | > 20
CC(C)C[C@@H]1NC(=O)[C@@H](N(C)C(=O)OC(C)(C)C)CCC[C@H]2CNC(=O)[C@@H]2C[C@@H](C#N)NC1=O [Example 22] | 1 to 20
CN1C[C@@H]2CCCC[C@H](NC(=O)OC(C)(C)C)C(=O)N3C[C@H]4[C@@H]([C@H]3C(=O)N[C@H](C#N)C[C@@H]2C1=O)C4(C)C [Example 140] | 1 to 20
CC1(C)[C@@H]2[C@H]3C(=O)N[C@H](C#N)C[C@@H]4C(=O)NC[C@@H]4CCCC[C@H](NC(=O)C(C)(C)C(F)(F)F)C(=O)N3C[C@@H]21 [Example 141] | < 0.1
CC(C)(C)NC(=O)[C@H]1CCCC[C@H]2CNC(=O)[C@H]2C[C@@H](C#N)NC(=O)[C@@H]2[C@@H]3[C@H](CN2C1=O)C3(C)C [Example 167] | 0.1 to 1
CC(C)(C)OC(=O)N[C@H]1CC/C=C\[C@H]2CCNC(=O)[C@H]2C[C@@H](C#N)NC(=O)[C@@H]2[C@@H]3[C@H](CN2C1=O)C3(C)C [Example 114] | < 0.1
CC1(C)[C@@H]2[C@H]3C(=O)N[C@H](C#N)C[C@@H]4C(=O)NC[C@@H]4CCCC[C@H](NS(=O)(=O)C4(C)CC4)C(=O)N3C[C@@H]21 [Example 159] | < 0.1
CC1(C)[C@@H]2[C@H]3C(=O)N[C@H](C#N)C[C@@H]4C(=O)NC[C@@H]4CCCC[C@H](NC(=O)CC4CCCC4)C(=O)N3C[C@@H]21 [Example 90] | < 0.1
CC(C)C[C@@H]1NC(=O)[C@@H](Cc2ccccc2)CCC[C@H]2CNC(=O)[C@@H]2C[C@@H](C#N)NC1=O [Example 27] | 1 to 20
CC(C)(C)OC(=O)N[C@H]1CC/C=C/[C@H]2CNC(=O)[C@H]2C[C@@H](C#N)NC(=O)[C@@H]2[C@@H]3[C@H](CN2C1=O)C3(C)C [Example 92] | < 0.1

— patent US20260325540A1 (priority 2023, published 2026)
